Data as given in patent publication US20240307485A1, “WS635 USES THEREOF IN MEDICINE” (WATERSTONE PHARMACEUTICALS (WUHAN) CO., LTD., priority 2021, published 2024).
“Also recorded” adds a separate entry of the source.

Key:
[1] = system: wound healing model of SD rats; experiment: Skin wound healing model in SD rats (full-thickness circular skin wound, 2 cm diameter); format: in vivo; settings: for wound area compared with the model group: once a day, WS635 oral 52.8 mg/kg, rb-bFGF external 262.5 IU/cm2, P<0.05, P<0.01; for wound healing rate over the administration cycle: once a day for 7 days, time course
Procedure: Eighteen 6-week-old male SD rats were randomly divided into 3 groups: model group, test article group and positive control group, with 6 rats in each group. Skin wound surgery was performed after anesthesia, and oral administration was started 2 h after skin wound formation. All rats were raised in a single cage. […]. The surgical details were as follows: All animals were anesthetized with 10% chloral hydrate solution (3 mL/kg) by intraperitoneal injection, their backs were depatured with pet shaving knives, and a circular mark with a diameter of 2 cm was made. After the skin was disinfected with alcohol, the full layer of skin was removed with surgical scissors along the marking line, and the wound surface was pressed to stop bleeding. The model group was orally given 10% DMSO corn oil, the test group was orally given WS635 (corn oil dissolved in 10% DMSO) at 52.8 mg/kg, and the positive control group was given 262.5 IU/cm2 (62.5 μL/cm^2) recombinant bovine basic fibroblast growth factor (rb-bFGF) external solution, once a day for 7 days. Digital photos were taken of the wound of each rat under the same conditions. The wound was recorded with plastic transparent paper, and the wound area was scanned by image J software after the wound was recorded with plastic transparent paper. Wound healing rate was calculated according to wound area (%)=(area after administration−area before administration)/area before administration 100%.

[2] = Toxicity test of repeated oral administration for 9 days in rats; settings: rat, in vivo, read-out: NOAEL (No Observed Adverse Effect Level) dose
[3] = system: angiogenesis; experiment: Angiogenesis in rats; format: in vivo

| Compound | wound area compared with the model group ([1]; Day 3) | wound area compared with the model group ([1]; Day 7) | wound healing effect of WS635 compared with rb-bFGF ([1]; WS635 oral 52.8 mg/kg vs rb-bFGF 262.5 IU/cm2, P>0.05, 52.8 mg/kg) | wound healing rate over the administration cycle [1] | wound healing (overall conclusion) ([1]; oral administration, SD rats) | NOAEL at 9 days [2] [mg/kg/day] | angiogenesis [3] |
| --- | --- | --- | --- | --- | --- | --- | --- |
| C/C=C/C[C@@H](C)[C@@H](O)[C@H]1C(=O)N[C@@H](CC)C(=O)N(C)[C@H](SCCN(C)C)C(=O)N(C)[C@@H](CC(C)(C)O)C(=O)N[C@@H](C(C)C)C(=O)N(C)[C@@H](CC(C)C)C(=O)N[C@@H](C)C(=O)N[C@H](C)C(=O)N(C)[C@@H](CC(C)C)C(=O)N(C)[C@@H](CC(C)C)C(=O)N(C)[C@@H](C(C)C)C(=O)N1C [WS635, (3S,6S,9S,12R,15S,18S,21S,24S,27R,30S,33S)-27-((2-(dimethylamino)ethyl)thio)-30-ethyl-3 3-((1R,2R,E)-1-hydroxy-2-methylhex-4-en-1-yl)-24-(2-hydroxy-2-methylpropyl)-6,9,18-triisobutyl-3,21-diisopropyl-1,4,7,10,12,15,19,25,28-nonamethyl-1,4,7,10,13,16,19,22,25,28,31-undecaazacyclotritriacontan-2,5,8,11,14,17,20,23,26,29,32-undecaone] | decreased significantly | decreased significantly | equivalent to rb-bFGF; also recorded: no significant difference | enhances wound healing rate in a time-dependent manner; also recorded: increased with the extension of administration time | significantly promote wound healing | 80 | significantly promote angiogenesis |
| rb-bFGF: recombinant bovine basic fibroblast growth factor (rb-bFGF) external solution, positive control | decreased significantly | decreased significantly | – | increased with the extension of administration time | – | – | – |
